Each structure is given as a SMILES string.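 Protocol summary: plate cells (96-well), add compound at 5 concentrations, incubate 48 h, interpolate endpoints linearly. GI50 = concentration required for 50% inhibition of growth. TGI: total growth inhibition.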 Where only a bound is given, the exact number is not on record here.

For one assay, the system named is HOP-62 NSCLC. The experiment in a line: NCI tumour cell line growth inhibition, 48 h.
Consider `NCCOCCOCCNc1nc(Cc2ccccc2)nc(NCCCN2CCCC2=O)n1`, for which the GI50 is > 100 µM and the TGI is > 100 µM.

In the case of `COc1ccc(-c2c3c(N)nc(-c4ccncc4)nc3nc3c2c(C)nn3-c2ccccc2)cc1`, the GI50 was 2.41 µM and the TGI stood at 37.6 µM.

With `COc1cccc(-n2ncc3c(N/N=C/c4ccc(C(=O)NCCN(C)C)cc4)ncnc32)c1`, the GI50 is 4.14 µM and the TGI came out at 7.81 µM.

As for `COc1ccc(-c2nc3sc4c(c3c(=O)[nH]2)CCCCCC4)cc1`, the GI50 is 1.87 µM and the TGI was > 33.2 µM.

`CC1(C)CC(=O)c2c(C(F)(F)F)nn(-c3ccc(C(N)=O)c(NC4CCC(OC(=O)CN)CC4)c3)c2C1` (stereo not given): the GI50 was 0.0785 µM and the TGI is > 100 µM.

`O=C1CC(c2ccc(O)cc2)C2(O1)C(=O)OC(C(O)CO)C2O` (stereo not given): the TGI was > 100 µM.

As for `Cc1ccccc1[P+](Cc1ccccc1)(c1ccccc1)c1ccccc1`, the GI50 was 4.34 µM and the TGI is > 100 µM.

On to `O=C(NCCCCCCNC(=O)n1cc(F)c(=O)[nH]c1=O)NCCCOCCOCCOCCOCCOCCOCCOCCOCCOCCOCCOCCOCCOCCOCCOCCOCCOCCOCCOCCOCCOCCCNC(=O)C(O)C(O)C(O)C(O)CO` (stereo not given), for which the TGI is > 100 µM.

The next assay deals with RXF 393 renal. The experiment in a line: NCI tumour cell line growth inhibition, 48 h.
Regarding `CN(C)C(=O)OC(Cn1cncn1)c1ccc(Cl)cc1Cl` (stereo not given), the TGI was > 100 µM.

In the case of `CN(C)CCNc1c2c(c(NCCN(C)C)c3[nH]ccc13)C(=O)c1ccccc1C2=O`, the GI50 was 1.5 µM and the TGI was determined as 3.63 µM.

In turn, `CCOC(=O)COc1ccccc1/C=C1\CCC(CN(C)C)C1=O` (stereo not given) showed a TGI of 7.94 µM.

Consider `Cc1c(C(=O)C/C(=N\O)C(=O)Nc2cc(Cl)c(Cl)cc2Cl)[n+](=O)c2ccccc2n1[O-]`, for which the TGI is 68.8 µM.

For `CC1OC(O[C@@H]2OC=C(C=O)[C@@]3(O)CC[C@H](C)[C@@H]23)C(O)C(O)C1O` (stereo not given in full), the TGI was > 100 µM.

`CCOC(=O)c1cc(NS(=O)(=O)c2ccccc2)cc(C(=O)OCC)c1`: the GI50 was > 100 µM and the TGI is > 100 µM.

For the molecule `Cn1cccc1-c1cc(-c2cccs2)nc(N)c1C#N`, the GI50 was > 100 µM and the TGI is > 100 µM.

For `O=C(N/C(=C\c1ccc2c(c1)OCO2)c1nc2ccccc2[nH]1)c1ccccc1`, the TGI amounted to 81.5 µM.

As for `C=CCOc1cccc(/C=C2\SC(=Nc3ccc(O)cc3)NC2=O)c1`, the GI50 is 0.302 µM and the TGI worked out at 3.77 µM.

Regarding `Cc1[nH]ccc2c1[nH]c1cc(=O)ccc12`, the TGI is > 100 µM.

`NCCOCCOCCNc1nc(Cc2ccccc2)nc(NCCCN2CCCC2=O)n1`: the GI50 was > 100 µM and the TGI was > 100 µM.

For the molecule `COc1ccc(-c2c3c(N)nc(-c4ccncc4)nc3nc3c2c(C)nn3-c2ccccc2)cc1`, the GI50 was 2.72 µM and the TGI came out at 20.6 µM.

Take `COc1cccc(-n2ncc3c(N/N=C/c4ccc(C(=O)NCCN(C)C)cc4)ncnc32)c1`: the GI50 is 0.496 µM and the TGI turned out to be 3.53 µM.

Regarding `COc1ccc(-c2nc3sc4c(c3c(=O)[nH]2)CCCCCC4)cc1`, the GI50 is 1.62 µM and the TGI was determined as 10.4 µM.

With `CC1(C)CC(=O)c2c(C(F)(F)F)nn(-c3ccc(C(N)=O)c(NC4CCC(OC(=O)CN)CC4)c3)c2C1` (stereo not given), the GI50 was 0.157 µM and the TGI is 28.8 µM.

Turning to `O=C1CC(c2ccc(O)cc2)C2(O1)C(=O)OC(C(O)CO)C2O` (stereo not given), the TGI is > 100 µM.

For the molecule `Cc1ccccc1[P+](Cc1ccccc1)(c1ccccc1)c1ccccc1`, the GI50 is 4.35 µM and the TGI came out at 51.8 µM.

As to `O=C(NCCCCCCNC(=O)n1cc(F)c(=O)[nH]c1=O)NCCCOCCOCCOCCOCCOCCOCCOCCOCCOCCOCCOCCOCCOCCOCCOCCOCCOCCOCCOCCOCCOCCCNC(=O)C(O)C(O)C(O)C(O)CO` (stereo not given), the TGI was > 100 µM.

For a further assay, the system named is SF-268 CNS. Description: NCI tumour cell line growth inhibition, 48 h.
Take `CN(C)C(=O)OC(Cn1cncn1)c1ccc(Cl)cc1Cl` (stereo not given): the TGI was > 100 µM.

As for `CN(C)CCNc1c2c(c(NCCN(C)C)c3[nH]ccc13)C(=O)c1ccccc1C2=O`, the GI50 is 1.39 µM and the TGI is 5.91 µM.

`CCOC(=O)COc1ccccc1/C=C1\CCC(CN(C)C)C1=O` (stereo not given) showed a TGI of 12.7 µM.

As to `Cc1c(C(=O)C/C(=N\O)C(=O)Nc2cc(Cl)c(Cl)cc2Cl)[n+](=O)c2ccccc2n1[O-]`, the TGI came to 75.7 µM.

For the molecule `CC1OC(O[C@@H]2OC=C(C=O)[C@@]3(O)CC[C@H](C)[C@@H]23)C(O)C(O)C1O` (stereo not given in full), the TGI is > 100 µM.

In the case of `CCOC(=O)c1cc(NS(=O)(=O)c2ccccc2)cc(C(=O)OCC)c1`, the GI50 is > 100 µM and the TGI is > 100 µM.

As to `Cn1cccc1-c1cc(-c2cccs2)nc(N)c1C#N`, the GI50 was > 100 µM and the TGI was > 100 µM.

As for `O=C(N/C(=C\c1ccc2c(c1)OCO2)c1nc2ccccc2[nH]1)c1ccccc1`, the TGI is > 100 µM.

Regarding `C=CCOc1cccc(/C=C2\SC(=Nc3ccc(O)cc3)NC2=O)c1`, the GI50 is 1.44 µM and the TGI was > 22.6 µM.

Consider `Cc1[nH]ccc2c1[nH]c1cc(=O)ccc12`, for which the TGI was > 100 µM.

Take `NCCOCCOCCNc1nc(Cc2ccccc2)nc(NCCCN2CCCC2=O)n1`: the GI50 is > 100 µM and the TGI was > 100 µM.

As for `COc1ccc(-c2c3c(N)nc(-c4ccncc4)nc3nc3c2c(C)nn3-c2ccccc2)cc1`, the GI50 was 7.93 µM and the TGI is > 100 µM.

Take `COc1cccc(-n2ncc3c(N/N=C/c4ccc(C(=O)NCCN(C)C)cc4)ncnc32)c1`: the GI50 was 4.11 µM and the TGI came to 8.46 µM.

As to `COc1ccc(-c2nc3sc4c(c3c(=O)[nH]2)CCCCCC4)cc1`, the GI50 was 13.9 µM and the TGI was > 33.2 µM.

`CC1(C)CC(=O)c2c(C(F)(F)F)nn(-c3ccc(C(N)=O)c(NC4CCC(OC(=O)CN)CC4)c3)c2C1` (stereo not given): the GI50 is 0.271 µM and the TGI was > 100 µM.

With `O=C1CC(c2ccc(O)cc2)C2(O1)C(=O)OC(C(O)CO)C2O` (stereo not given), the TGI was > 100 µM.

Regarding `Cc1ccccc1[P+](Cc1ccccc1)(c1ccccc1)c1ccccc1`, the GI50 was 3.44 µM and the TGI was > 100 µM.

For the molecule `O=C(NCCCCCCNC(=O)n1cc(F)c(=O)[nH]c1=O)NCCCOCCOCCOCCOCCOCCOCCOCCOCCOCCOCCOCCOCCOCCOCCOCCOCCOCCOCCOCCOCCOCCCNC(=O)C(O)C(O)C(O)C(O)CO` (stereo not given), the TGI is > 100 µM.

The values are drawn from PubChem BioAssay (NCI).
